One experiment has as its target T1, RORγt-LBD (Homo sapiens, UniProt P51449).
T1 sequence (P51449 269-508 limits assumed): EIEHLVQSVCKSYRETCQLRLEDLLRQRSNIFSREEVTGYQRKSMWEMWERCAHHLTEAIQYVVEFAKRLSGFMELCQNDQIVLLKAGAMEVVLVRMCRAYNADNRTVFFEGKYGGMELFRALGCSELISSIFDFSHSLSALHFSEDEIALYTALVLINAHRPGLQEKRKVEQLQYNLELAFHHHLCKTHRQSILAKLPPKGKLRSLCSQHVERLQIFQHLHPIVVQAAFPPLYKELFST
Description: Time-resolved fluorescence resonance energy-transfer assay (TR-FRET), co-activator peptide recruitment. Type of experiment: biochemical. On the set-up: TR-FRET Biochemical Amax: unit not given here. The following applies: for EC50: His-RORγt-LBD 30 nM, SRC peptide 500 nM, agonistic activity, averages of one or more measurements, read-out: TR-FRET Biochemical EC50/; for TR-FRET Biochemical Amax: upper activation limit, His-RORγt-LBD, SRC peptide. In short, it runs like this: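 This agonist-mode TR-FRET used 30 nM His-tagged RORγt-LBD, 500 nM biotinylated SRC peptide, 0.25 nM Eu-anti-His and 5 nM APC-streptavidin in pH 7.0 Tris/KCl buffer with DTT and Triton. A 7-concentration, 5-fold compound series was incubated at 4 °C overnight plus 1 h at room temperature, and the 665/615 nm signal was read.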
In general terms: In TR-FRET formats the signal depends on donor and acceptor labels being close together.

The target in another experiment is T2, RORγt (Homo sapiens, UniProt P51449).
T2 construct: The plasmid of pFN26A-RORγt-LBD and pG14.35 (Promega, Cat. No. E1370) were co-transfected into HEK 293 cells; expressed in transfected cells; host or cells: HEK 293 cells (Cat. No. GNHu18)
T2 sequence (P51449 269-508 limits assumed): T1 sequence (P51449 269-508 limits assumed)
Description: RORγt cellular reporter gene detection assay.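 On Cellular Reporter Assay Amax: Ursolic Acid added as 5 µL of 20 µM medium per well.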 The following applies: 24 hrs; for EC50: HEK 293 cells co-transfected with pFN26A-RORγt-LBD and pG14.35, in presence of antagonist Ursolic acid, top concentration 50 μM; for Cellular Reporter Assay Amax: upper activation limit, HEK 293 cells, in presence of antagonist Ursolic acid. In kind it is cell-based. In short, it runs like this:
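Compounds, titrated 4-fold from a 50 μM top concentration, were added with Ursolic acid to HEK293 cells carrying a RORγt-LBD plasmid and a reporter plasmid. After 24 h at 37° C, dual firefly/Renilla luciferase readout; four-parameter curves gave EC50 and maximal activation (Amax).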
In general terms: A reporter such as luciferase makes a cellular process visible.

As for `CC(=O)N1CCN2c3ccc(-c4cc(F)cc(OC(F)F)c4)cc3N(S(=O)(=O)c3cccc(C(F)(F)F)c3)C[C@@H]2C1` [Example 7, (S)-1-(8-(3-(difluoromethoxy)-5-fluorophenyl)-6-((3-(trifluoromethyl)phenyl)sulfonyl)-1,2,4,4a,5,6-hexahydro-3H-pyrazino[1,2-a]quinoxalin-3-yl)ethan-1-one], at RORγt-LBD, the EC50 was 17.5 nM and the “TR-FRET Biochemical Amax” value turned out to be 1.45. For the same compound, on RORγt, the EC50 stood at 145 nM and the “Cellular Reporter Assay Amax” value came out at 3.7.
As for `NS(=O)(=O)N1CCN2c3ccc(-c4cc(F)cc(OC(F)F)c4)cc3N(S(=O)(=O)c3cccc(C(F)(F)F)c3)C[C@@H]2C1` [Example 67, (R)-8-(3-(difluoromethoxy)-5-fluoro-phenyl)-6-((3-(trifluorometh-yl)phenyl)sulfonyl)-1,2,4,4a,5,6-hexahydro-3H-pyrazino[1,2-a]quinoxaline-3-sulfonamide], at RORγt-LBD, the EC50 amounted to 19.7 nM and the “TR-FRET Biochemical Amax” value is recorded as 0.87. At RORγt, the EC50 turned out to be 158 nM and the “Cellular Reporter Assay Amax” value is on record as 3.3.
The corresponding values for `O=S(=O)(c1cccc(C(F)(F)F)c1)N1C[C@@H]2CN(C3COC3)CCN2c2ccc(/C=C/c3c(Cl)cccc3C(F)(F)F)cc21` [Example 32, (S,E)-8-(2-chloro-6-(trifluoromethyl)styryl)-3-(oxetan-3-yl)-6-((3-(trifluoromethyl)phenyl)sulfonyl)-2,3,4,4a,5,6-hexahydro-1H-pyrazino[1,2-a]quinoxaline] are 10.8 nM, 0.93, 599 nM and 4.3.
On the same counts, the results for `O=S(=O)(c1cccc(C(F)(F)F)c1)N1C[C@@H]2CN(C[C@H](O)CO)CCN2c2ccc(/C=C/c3c(Cl)cccc3C(F)(F)F)cc21` [Example 36, (S)-3-((S)-8-((E)-2-chloro-6-(trifluoromethyl)styryl)-6-((3-(trifluaromethyl)phenyl)sulfonyl)-1,2,4,4a,5,6-hexahydro-3H-pyrazino[1,2-a]quinoxalin-3-yl)-propane-1,2-diol] are 24.9 nM, 1.23, 501 nM and 4.1.
With `O=S(=O)(c1cccc(C(F)(F)F)c1)N1C[C@@H]2CC(O[C@@H]3O[C@H](CO)[C@@H](O)[C@H](O)[C@H]3O)CCN2c2ccc(-c3cc(F)cc(OC(F)F)c3)cc21` (stereo partly drawn) [Example 112, (2R,3R,4S,5S,6R)-2-(((6aS)-3-(3-(difluoromethoxy)-5-fluorophenyl)-5-((3-(trifluoromethyl)phenyl)sulfonyl)-6,6a,7,8,9,10-hexahydro-5H-pyrido[1,2-a]quinoxalin-8-yl)oxy)-6-(hydroxymethyl)tetrahydro-2H-pyran-3,4,5-triol], at RORγt-LBD, the EC50 was found to be 273 nM and the “TR-FRET Biochemical Amax” value came to 0.33. At RORγt, the EC50 was found to be 1940 nM and the “Cellular Reporter Assay Amax” value was 5.6.
Take `CS(=O)(=O)CCOC1CCN2c3ccc(-c4cc(F)cc(OC(F)F)c4)cc3N(S(=O)(=O)c3cccc(C(F)(F)F)c3)C[C@@H]2C1` (stereo partly drawn) [Example 111, (6aS)-3-(3-(difluoromethoxy)-5-fluorophenyl)-8-((methylsulfonyl)ethoxy)-5-((3-(trifluoromethyl)phenyl)sulfonyl)-6,6a,7,8,9,10-hexahydro-5H-pyrido[1,2-a]quinoxaline]: at RORγt-LBD, the EC50 was determined as 18.9 nM and the “TR-FRET Biochemical Amax” value is reported as 0.64. Also, at RORγt, the EC50 turned out to be 564 nM and the “Cellular Reporter Assay Amax” value stood at 3.2.
Turning to `O=S(=O)(c1cccc(C(F)(F)F)c1)N1CCNc2ccc(-c3cc(F)cc(OC(F)F)c3)cc21` [Example 2, 7-(3-(difluoromethoxy)-5-fluorophenyl)-1-((3-(trifluoromethyl)phenyl)sulfonyl)-1,2,3,4-tetrahydroquinoxaline], at RORγt-LBD, the EC50 came out at 18.1 nM and the “TR-FRET Biochemical Amax” value came to 1.85. Besides, at RORγt, the EC50 amounted to 163 nM and the “Cellular Reporter Assay Amax” value came to 3.1.
The corresponding values for `CC1(C)C=C(c2ccc3c(c2)N(S(=O)(=O)c2cccc(C(F)(F)F)c2)C[C@@H]2CN(C(=O)CC#N)CCN32)CC(C)(C)O1` [Example 31, (S)-3-oxo-3-(8-(2,2,6,6-tetramethyl-3,6-dihydro-2H-pyran-4-yl)-6-((3-(trifluoro-methyl)phenyl)sulfonyl)-1,2,4,4a,5,6-hexahydro-3H-pyrazino[1,2-a]quinoxa-lin-3-yl)propanenitrile] are 11.5 nM, 0.97, 419 nM and 3.4.

The values are drawn from US20220009894A1, “1,2,3,4-TETRAHYDROQUINOXALINE DERIVATIVE, PREPARATION METHOD THEREFOR AND APPLICATION THEREOF” (Abbisko Therapeutics Co., Ltd., priority 2019, published 2022).
